Source: patent publication US8697725B2, “Tetrahydroquinoline derivatives and their pharmaceutical use” (GlaxoSmithKline LLC, priority 2009, dated 2014)
Counter-ions that a name gives are not always drawn.

System: TNFα
Test: LPS Stimulated Whole Blood Measuring TNFα Levels Assay
Format: cell-based
Conditions: 24 h, LPS 200 ng/ml, immunoassay, read-out: pIC50, TNFα levels in LPS stimulated whole blood (converted)
Method: LPS Stimulated Whole Blood Measuring TNFα Levels Assay
Activation of monocytic cells by agonists of toll-like receptors such as bacterial lipopolysaccharide (LPS) results in production of key inflammatory mediators including TNFα. Such pathways are widely considered to be central to the pathophysiology of a range of auto-immune and inflammatory disorders.
Compounds to be tested are diluted to give a range of appropriate concentrations and 1 ul of the dilution stocks is added to wells of a 96 plate. Following addition of whole blood (130 ul) the plates are incubated at 37 degrees (5% CO2) for 30 min before the addition of 10 ul of 2.8 ug/ml lipopolysaccharides (LPS), diluted in complete RPMI 1640 (final concentration=200 ng/ml), to give a total volume of 140 ul per well. After further incubation for 24 hours at 37 degrees, 140 ul of PBS are added to each well. The plates are sealed, shaken for 10 minutes and then centrifuged (2500 rpm×10 min). 100 ul of the supernatant are removed and TNFα levels assayed by immunoassay (typically by MesoScale Discovery technology) either immediately or following storage at −20 degrees. Dose response curves for each compound was generated from the data and an IC50 value was calculated.

IC50 [µM] | SMILES
≤ 6.31 | CNc1ccc(-c2ccc3c(c2)[C@@H](NC(=O)OC(C)C)C[C@@H](C)N3C(C)=O)cn1 (racemic) [Example 53, 1-methylethyl {(cis)-1-acetyl-2-methyl-6-[6-(methylamino)-3-pyridinyl]-1,2,3,4-tetrahydro-4-quinolinyl}carbamate hydrochloride]
≤ 6.31 | CC(=O)N1c2ccc(-c3cnc(N4CCCCC4)nc3)cc2[C@@H](NC(=O)OC(C)C)C[C@H]1C (racemic) [Example 49, 1-methylethyl {(cis)-1-acetyl-2-methyl-6-[2-(1-piperidinyl)-5-pyrimidinyl]-1,2,3,4-tetrahydro-4-quinolinyl}carbamate hydrochloride]
≤ 6.31 | CC(=O)N1c2ccc(-c3ccc(C#N)cc3)cc2[C@H](NC(=O)OC(C)C)C[C@@H]1C [Example 120, 1-Methylethyl[(2S,4R)-1-acetyl-6-(4-cyanophenyl)-2-methyl-1,2,3,4-tetrahydro-4-quinolinyl]carbamate]

The remaining lines, values behind:

SMILES | IC50 [µM]
CC(=O)N1c2ccc(-c3ccc(N(C)C)nc3)cc2[C@@H](NC(=O)OC(C)C)C[C@H]1C (racemic) [Example 48, 1-methylethyl {(cis)-1-acetyl-6-[6-(dimethylamino)-3-pyridinyl]-2-methyl-1,2,3,4-tetrahydro-4-quinolinyl}carbamate hydrochloride] | ≤ 6.31
CC(=O)N1c2ccc(-c3ccc(CN4CCCCC4)o3)cc2[C@@H](NC(=O)OC(C)C)C[C@H]1C (racemic) [Example 22, 1-methylethyl {(cis)-1-acetyl-2-methyl-6-[5-(1-piperidinylmethyl)-2-furanyl]-1,2,3,4-tetrahydro-4-quinolinyl}carbamate (formic acid salt)] | ≤ 6.31
CC(=O)N1c2ccc(-c3cnc(N4CCNCC4)nc3)cc2[C@@H](NC(=O)OC(C)C)C[C@H]1C (racemic) [Example 44, 1-methylethyl {(cis)-1-acetyl-2-methyl-6-[2-(1-piperazinyl)-5-pyrimidinyl]-1,2,3,4-tetrahydro-4-quinolinyl}carbamate hydrochloride] | ≤ 6.31
CC(=O)N1c2ccc(-c3ccc(CN4CCCCC4)cc3)cc2[C@@H](NC(=O)OC(C)(C)C)C[C@H]1C (racemic) [Example 17, 1,1-dimethylethyl {(cis)-1-acetyl-2-methyl-6-[4-(1-piperidinylmethyl)phenyl]-1,2,3,4-tetrahydro-4-quinolinyl}carbamate] | ≤ 6.31
CC(=O)N1c2ccc(-c3ccc(CO)cc3)cc2[C@H](NC(=O)OC(C)C)C[C@@H]1C (relative stereo) [Example 15, 1-methylethyl {(cis)-1-acetyl-6-[4-(hydroxymethyl)phenyl]-2-methyl-1,2,3,4-tetrahydro-4-quinolinyl}carbamate] | ≤ 6.31
CC(=O)N1c2ccc(-c3ccc(N4CCOCC4)nc3)cc2[C@@H](NC(=O)OC(C)C)C[C@H]1C (racemic) [Example 10, 1-methylethyl {(cis)-1-acetyl-2-methyl-6-[6-(4-morpholinyl)-3-pyridinyl]-1,2,3,4-tetrahydro-4-quinolinyl}carbamate hydrochloride] | ≤ 6.31
CC(=O)N1c2ccc(-c3ccc(CN4CCCCC4)cc3)cc2[C@@H](NC(=O)OC2CCCC2)C[C@H]1C (racemic) [Example 36, cyclopentyl {(cis)-1-acetyl-2-methyl-6-[4-(1-piperidinylmethyl)phenyl]-1,2,3,4-tetrahydro-4-quinolinyl}carbamate] | ≤ 6.31
